Here are results for 13 compounds from patent US12565501B2, “Muscarinic acetylcholine M1 receptor antagonists” (Contineum Therapeutics, Inc., priority 2019, dated 2026).

SMILES strings stand for the structures. pIC50: −log10 of the molar value. Bounds are passed on as bounds.

In this test the target is T1, human M1 receptor (Homo sapiens, UniProt P11229).
T1 sequence (P11229 1-460): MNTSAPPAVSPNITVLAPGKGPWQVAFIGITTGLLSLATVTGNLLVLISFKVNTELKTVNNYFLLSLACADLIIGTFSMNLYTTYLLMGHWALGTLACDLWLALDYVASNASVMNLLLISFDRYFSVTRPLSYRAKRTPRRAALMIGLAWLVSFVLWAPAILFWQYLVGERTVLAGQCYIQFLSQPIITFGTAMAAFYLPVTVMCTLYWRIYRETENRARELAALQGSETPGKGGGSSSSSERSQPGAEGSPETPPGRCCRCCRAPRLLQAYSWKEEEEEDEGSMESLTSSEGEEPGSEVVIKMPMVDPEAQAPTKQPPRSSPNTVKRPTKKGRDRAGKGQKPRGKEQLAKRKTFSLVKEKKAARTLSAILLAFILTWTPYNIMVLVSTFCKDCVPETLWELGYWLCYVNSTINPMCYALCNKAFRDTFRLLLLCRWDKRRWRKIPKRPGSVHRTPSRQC
Nature of the test: In vitro functional assay of muscarinic acetylcholine receptor activity (aequorin calcium flux, reversal of EC80 acetylcholine response). The following applies: CHO-K1 cells stably expressing human M1 receptor with aequorin; acetylcholine at EC80; calcium flux (luminescence); read-out: M1 IC50. In kind it is cell-based. An outline of the steps: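 CHO-K1 cells expressing human M1 and aequorin, loaded with 5 μM coelenterazine for 4 h, preincubated with compound 30 min at room temperature, then challenged with EC80 acetylcholine.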
In general terms: Calcium assays in cells follow changes in intracellular calcium, usually with a dye or a luminescent sensor.

In the case of `N#Cc1ccc(N2C3CCC2CN(C(=O)COC2(c4cc(F)ccc4F)CC2)C3)nc1` [Example 213, 6-(3-(2-(1-(2,5-difluorophenyl)cyclopropoxy)acetyl)-3,8-diazabicyclo[3.2.1]octan-8-yl)nicotinonitrile], the pIC50 was 7.00 to 8.00.

For `N#Cc1ccc(N2C3CCC2CN(C(=O)COC2(c4ccc(Cl)c(Cl)c4)CC2)C3)nc1` [Example 214, 6-(3-(2-(1-(3,4-dichlorophenyl)cyclopropoxy)acetyl)-3,8-diazabicyclo[3.2.1]octan-8-yl)nicotinonitrile], the pIC50 was 7.00 to 8.00.

Consider `N#Cc1ccc(N2C3CCC2CN(C(=O)COC2(c4ccc(F)c(Br)c4)CC2)C3)nc1` [Example 215, 6-(3-(2-(1-(3-bromo-4-fluorophenyl)cyclopropoxy)acetyl)-3,8-diazabicyclo[3.2.1]octan-8-yl)nicotinonitrile], for which the pIC50 was 7.00 to 8.00.

Take `N#Cc1ccc(N2C3CCC2CN(C(=O)COC2(c4cc(F)cc(Br)c4)CC2)C3)nc1` [Example 217, 6-(3-(2-(1-(3-bromo-5-fluorophenyl)cyclopropoxy)acetyl)-3,8-diazabicyclo[3.2.1]octan-8-yl)nicotinonitrile]: the pIC50 was 7.00 to 8.00.

In the case of `N#Cc1ccc(N2C3CCC2CN(C(=O)COC2(c4cccc(Br)c4F)CC2)C3)nc1` [Example 219, 6-(3-(2-(1-(3-bromo-2-fluorophenyl)cyclopropoxy)acetyl)-3,8-diazabicyclo[3.2.1]octan-8-yl)nicotinonitrile], the negative-log IC50 (pIC50) is 7.00 to 8.00.

On to `N#Cc1ccc(N2C3CCC2CN(C(=O)COC2(c4cc(F)ccc4Br)CC2)C3)nc1` [Example 220, 6-(3-(2-(1-(2-bromo-5-fluorophenyl)cyclopropoxy)acetyl)-3,8-diazabicyclo[3.2.1]-8-yl)nicotinonitrile], for which the pIC50 was above 8.00.

Consider `N#Cc1ccc(N2C3CCC2CN(C(=O)COC2(c4ccc(F)cc4Br)CC2)C3)nc1` [Example 221, 6-(3-(2-(1-(2-bromo-4-fluorophenyl)cyclopropoxy)acetyl)-3,8-diazabicyclo[3.2.1]octan-8-yl)nicotinonitrile], for which the negative-log IC50 (pIC50) is 7.00 to 8.00.

In the case of `COc1ccc(C2(OCC(=O)N3CC4CCC(C3)N4c3ccc(C#N)cn3)CC2)cc1F` [Example 222, 6-(3-(2-(1-(3-fluoro-4-methoxyphenyl)cyclopropoxy)acetyl)-3,8-diazabicyclo[3.2.1]octan-8-yl)nicotinonitrile], the negative logarithm of the IC50 (pIC50) was 5.00 to 6.00.

Turning to `COc1ccc(C2(OCC(=O)N3CC4CCC(C3)N4c3ccc(C#N)cn3)CC2)c(F)c1` [Example 223, 6-(3-(2-(1-(2-fluoro-4-methoxyphenyl)cyclopropoxy)acetyl)-3,8-diazabicyclo[3.2.1]octan-8-yl)nicotinonitrile], the pIC50 was below 6.00.

As for `COc1cc(C2(OCC(=O)N3CC4CCC(C3)N4c3ccc(C#N)cn3)CC2)ccc1F` [Example 224, 6-(3-(2-(1-(4-fluoro-3-methoxyphenyl)cyclopropoxy)acetyl)-3,8-diazabicyclo[3.2.1]octan-8-yl)nicotinonitrile], the pIC50 was 7.00 to 8.00.

As for `COc1ccc(C2(OCC(=O)N3CC4CCC(C3)N4c3ccc(C#N)cn3)CC2)cc1OC` [Example 225, 6-(3-(2-(1-(3,4-dimethoxyphenyl)cyclopropoxy)acetyl)-3,8-diazabicyclo[3.2.1]octan-8-yl)nicotinonitrile], the negative logarithm of the IC50 (pIC50) is 6.00 to 7.00.

`COc1ccc(Br)c(C2(OCC(=O)N3CC4CCC(C3)N4c3ccc(C#N)cn3)CC2)c1` [Example 226, 6-(3-(2-(1-(2-bromo-5-methoxyphenyl)cyclopropoxy)acetyl)-3,8-diazabicyclo[3.2.1]octan-8-yl)nicotinonitrile]: the pIC50 is above 8.00.

For the compound `N#Cc1ccc(N2C3CCC2CN(C(=O)COC2(c4ccncc4)CC2)C3)nc1` [Example 227, 6-(3-(2-(1-(pyridin-4-yl)cyclopropoxy)acetyl)-3,8-diazabicyclo[3.2.1]octan-8-yl)nicotinonitrile], the pIC50 is 6.00 to 7.00.

In general, pIC50 refers to the IC50 on a negative log10 scale, so that one unit is a factor of ten.
